Assays:
Winterweizen = test: Field test of gametocidal activity (sterilisation of anthers), winter wheat; assay type: in vivo; settings: V. Periode der Organogenese, 2%ige wäßrige Emulsion
From the text: (§1) Die gametozide Aktivitat der erfindungsgemäßen Sterilisationsmittel war im Feldversuch in verschiedenen bodenklimatischen Zonen mit Teilstücken von 10 m^2 Größe in drei- bis viermaliger Wiederholung festgestellt. Jedes Sterilisationsmittel wurde mindenstens 5 Jahre lang geprüft.
(§2) Die Entwicklung der Perioden der Organogenese wird zytologisch überwacht. Die Behandlung von Pflanzen mit dem Sterilisationsmittel erfolgt am Anfang der fünften Periode der Organogenese nach Kupermann.
(§3) Mit dem Ährenschieben verwirklicht man die Isolierung von Hauptähren und anderen Stockwerken in Pergamentbeuteln. Bei Weizen und Tritikale werden Einzelisolatoren benutzt. Bei Roggen schließt man je Ähre 5 bis 7 verschiedene nebeneinander befindliche Pflanzen unter einen gemeinsamen Isolator ein. Bei Hierse wird jede Rispe getrennt isoliert. Der Sterilitätsprozentsatz (X) für Weizen, Roggen, Tritikale und Hirse wird nach der Formel [formula] ermittelt.
(§4) Die Kornzahl in nicht isolierten Ähren von Kontrollpflanzen wird bedingt für 100 % Ansetzen bei freier Bestäubung angenommen.
(§5) Um zuverlässige Angaben zu erhalten, verwendet man 20 bis 25 Isolatoren jeder Wiederholung für Weizen und Tritikale, 10 .bis 15 Isolatoren jeder Wiederholung für Roggen und Hirse.
Pflanzen des Winterweizens Sorte Mironowskaja 808 werden in der V. Periode der Organogenese durch Zerstäubung der 2%igen wäßrigen Emulsion der δ, δ' -Thiodivaleriansäure mit Hilfe einer Rückenspritze behandelt. Als Emulgiermittel wird 0,1 Masse% Kalziumalkylbenzalsulfonat mit 12 bis 14 Kohlenstoffatomen hinzugefügt. Als Adjuvans führt man in die Emulsion 0,01 Masse% Dimethylsulfoxid ein. Der Verbrauch an Präparat beträgt 20 kg/ha. Als Kontrolle dienen Pflanzen, behandelt mit einem Verdünner ohne Sterilisationsmittel. Die Ergebnisse sind in der Tabelle 1 angegeben. […] Periode der Organogenese erhalten.
Der Prozeß erfolgt analog zu dem im Beispiel 1 bescnriebenen. Als Sterilisationsmittel benutzt man 2%ige wäßrige Emulsion von Natriumsalz der δ, δ'-Thiodivaleriansäure, δ, δ' -Sulfonyldivaleriansäure, Natriumsalz der δ, δ' -Sulfonyldivaleriansäure, Kaliumsalz der δ, δ'--Sulfonyldivaleriansäure, Bis(di-n-butyläther) der δ, δ'--Thiodivaleriansäure, 4-Karboxybutyldezylsulfid bzw.
Pflanzen des Winterweizens Sorte Korall werden in der V. Periode der Organogenese (nach Kupermann) mit 2%iger wäßriger Emulsion von Bis(2-äthylhexyläther) der δ, δ' --Thiodivaleriansäure, 4-Karboxybutyldezylsulfid bzw. Bis(di--n-butyläther) der δ, δ' -Thiodivalerianqäure behandelt. Die Emulsion enthält 0,1 Masse% Kalziumalkylbenzolsulfonat mit 12 bis 14 Kohlenstoffatomen und 0,01 Masse% Dodezylsulfat. Der Verbrauch an Präparat beträgt 12 kg/ha. Als Kontrolle dienen Pflanzen, behandelt mit einem Verdünner ohne Sterilisationsmittel. Die Prüfergebnisse sind in der Tabelle 2 angegeben.
Pflanzen des Winterweizens Gordeiforme 12303 werden in der V. Periode der Organogenese (nach Kupermann) mit 2%iger wäßriger Emulsion von 4-Karboxybutyldezylsulfid, Bis(2-äthylhexyläther) der δ, δ' -Thiodivaleriansäure, δ, δ' -Sulfonyldivaleriansäure behandelt. Die Emulsion enthält als Emulgiermittel 0,1 Masse% Kalziumalkylbenzolsulfonat mit 12 bis 14 Kohlenstoffatomen und 0,01 Masse% Dimethylformamid. Der Verbrauch an Präparat beträgt 16 kg/ha. Als Kontrolle dienen Pflanzen, behandelt mit einem Verdünner ohne Sterilisationsmittel.

diploidem Roggen = test: Field test of gametocidal activity (sterilisation of anthers), diploid rye; assay type: in vivo; settings: 1%ige wäßrige Emulsion
From the text: as §1, §2, §3, §4, §5
Pflanzen von diploidem Roggen Sorte Wosohod 2 werden in der V. Periode der Organogenese (nach Kupermann) mit 1%iger wäßriger Emulsion von Bis(di-n-butyläther) der δ, δ' -Thiodivaleriansäure, 4-Krboxybutyldezylsulfid, Natriumsalz der δ, δ' -Thiodivaleriansäure, Bis(2-äthylhexyläther) der δ, δ' -Thiodivaleriansäure, δ, δ' -Sulfonyldivaleriansäure, Natriumsalz der δ, δ'-Sulfonyldivaleriansäure, Kaliumsalz der δ, δ' -Sulfonyldivaleriansäure behandelt. Die Emulsion enthält 0,1 Masse% […] mit 12 bis 14 Kohlenstoffatomen und 0,01 Masse% Tetrahydrofuran. Der Verbrauch an Präparat beträgt 6 kg/ha. Als Kontrolle dienen Pflanzen, behandelt mit einem Verdünner ohne Sterilisationsmittel.
Pflanzen von diploidem Roggen Sorte Gibrid 1861/79 werden in der V. und VI. Periode der Organogenese (nach Kupermann) mit 1%iger wäßriger Emulsion von Bis(di-n-butyläther) der δ, δ' -Thiodivaleriansäure, δ, δ' -Thiodivaleriansäure, Natriumsalz der δ δ' -Thiodivaleriansäure, 4-Karboxybutyldezylsulfid, δ , δ' -Sulfonyldivaleriansäure, Kaliumsalz der δ, δ' -Sulfonyldivaleriansäuleriansäure, Kaliumalz der δ' -Sulfonyldivaleriansäure, Bis(2-äthylhexyläther) der δ, δ' -Thiodivaleriansäure behandelt. Die Emulsion enthält 0,1 Masse% Kalziumalkylbenzolsulfonat mit 12 bis 14 Kohlenstoffatomen und 0,01 Masse% Dimethylformamid. Der Verbrauch an Präparat beträgt 8 kg/ha. Als Kontrolle dienen Pflanzen, behandelt mit einem Verdünner ohne Sterilisationsmittel. Die Prüfergebnisse sind in der Tabelle 10 angegeben.

[1] = Sorte Mironowskaja 808, 20 kg/ha
[2] = Sorte Gibrid 1861/79, V. und VI. Periode der Organogenese, 8 kg/ha
[3] = Sorte Wosohod 2, V. Periode der Organogenese, 6 kg/ha

## CCCCCCCCCCSCCCCC(=O)O [Beispiel 12, 4-Karboxybutyldezylsulfid]
Winterweizen; Gordeiforme 12303, 16 kg/ha
  Anzahl von Körnern der Ähre bei freier Bestäubung: 21,6
  Anzahl von Körnern der Ähre im Isolator: 0,0
  Prozentsatz der Sterilität: 100,0%
  Prozentsatz des Ansetzens von Körnern bei freier Bestäubung: 74,2%

## O=C([O-])CCCCS(=O)(=O)CCCCC(=O)[O-].[Na+].[Na+] [Beispiel 4, Natriumsalz der δ, δ' -Sulfonyldivaleriansäure]
Winterweizen; [1]
  Anzahl von Körnern der Ähre bei freier Bestäubung: 34,1
  Anzahl von Körnern der Ähre im Isolator: 0,1
  Prozentsatz der Sterilität: 99,8%
  Prozentsatz des Ansetzens von Körnern bei freier Bestäubung: 82,8%

## Bis(di-n-butyläther) der δ, δ'--Thiodivaleriansäure [Beispiel 6]
Winterweizen; [1]
  Anzahl von Körnern der Ähre bei freier Bestäubung: 34,8
  Anzahl von Körnern der Ähre im Isolator: 0,0
  Prozentsatz der Sterilität: 100,0%
  Prozentsatz des Ansetzens von Körnern bei freier Bestäubung: 84,5%

## O=C(O)CCCCSCCCCC(=O)O [Beispiel 46, Natriumsalz der δ δ' -Thiodivaleriansäure]
Diploidem Roggen; [2]
  Anzahl von Körnern der Ähre bei freier Bestäubung: 57,1
  Anzahl von Körnern der Ähre im Isolator: 0,1
  Prozentsatz der Sterilität: 99,8%
  Prozentsatz des Ansetzens von Körnern bei freier Bestäubung: 90,9%

## O=C(O)CCCCSCCCCC(=O)O [Beispiel 39, Natriumsalz der δ, δ' -Thiodivaleriansäure]
Diploidem Roggen; [3]
  Anzahl von Körnern der Ähre bei freier Bestäubung: 50,5
  Anzahl von Körnern der Ähre im Isolator: 0,1
  Prozentsatz der Sterilität: 99,8%
  Prozentsatz des Ansetzens von Körnern bei freier Bestäubung: 92,5%

## CCCCCCCCCCSCCCCC(=O)O [Beispiel 38, 4-Krboxybutyldezylsulfid]
Diploidem Roggen; [3]
  Anzahl von Körnern der Ähre bei freier Bestäubung: 50,5
  Anzahl von Körnern der Ähre im Isolator: 0,0
  Prozentsatz der Sterilität: 100,0%
  Prozentsatz des Ansetzens von Körnern bei freier Bestäubung: 92,5%

## CCCCC(CC)COC(=O)CCCCSCCCCC(=O)OCC(CC)CCCC (centres unmarked) [Beispiel 50, Bis(2-äthylhexyläther) der δ, δ' -Thiodivaleriansäure]
Diploidem Roggen; [2]
  Anzahl von Körnern der Ähre bei freier Bestäubung: 53,2
  Anzahl von Körnern der Ähre im Isolator: 0,0
  Prozentsatz der Sterilität: 100,0%
  Prozentsatz des Ansetzens von Körnern bei freier Bestäubung: 84,7%

## O=C(O)CCCCSCCCCC(=O)O [Beispiel 45, δ, δ' -Thiodivaleriansäure]
Diploidem Roggen; [2]
  Anzahl von Körnern der Ähre bei freier Bestäubung: 58,6
  Anzahl von Körnern der Ähre im Isolator: 0,1
  Prozentsatz der Sterilität: 99,8%
  Prozentsatz des Ansetzens von Körnern bei freier Bestäubung: 93,3%

## CCCCCCCCCCSCCCCC(=O)O [Beispiel 7, 4-Karboxybutyldezylsulfid]
Winterweizen; [1]
  Anzahl von Körnern der Ähre bei freier Bestäubung: 35,6
  Anzahl von Körnern der Ähre im Isolator: 0,0
  Prozentsatz der Sterilität: 100,0%
  Prozentsatz des Ansetzens von Körnern bei freier Bestäubung: 86,4%

## O=C(O)CCCCS(=O)(=O)CCCCC(=O)O [Beispiel 42, Natriumsalz der δ, δ'-Sulfonyldivaleriansäure]
Diploidem Roggen; [3]
  Anzahl von Körnern der Ähre bei freier Bestäubung: 47,4
  Anzahl von Körnern der Ähre im Isolator: 0,1
  Prozentsatz der Sterilität: 99,8%
  Prozentsatz des Ansetzens von Körnern bei freier Bestäubung: 86,8%

## CCCCCCCCCCSCCCCC(=O)O [Beispiel 47, 4-Karboxybutyldezylsulfid]
Diploidem Roggen; [2]
  Anzahl von Körnern der Ähre bei freier Bestäubung: 52,8
  Anzahl von Körnern der Ähre im Isolator: 0,0
  Prozentsatz der Sterilität: 100,0%
  Prozentsatz des Ansetzens von Körnern bei freier Bestäubung: 84,1%

From patent EP0362382A1, “METHOD OF STERILIZING PLANT POLLEN” (VSESOJUZNY NAUCHNO-ISSLEDOVATELSKY INST. SELSKOKHOZYAISTV. …, priority 1988, dated 1989)
